Data on one compound can be found in patent US20110105554A1, “MEANS FOR TREATING MYOSIN-RELATED DISEASES” (KINARIS BIOMEDICALS GMBH, priority 2007, published 2011).

Several values for one entry are separate records, joined by “and”; a condition that tells them apart may be missing. Equal values may be shown once.

For one assay, the target named is T1, Dictyostelium myosin-5b (Dictyostelium discoideum, UniProt P54697).
T1 construct: comprising amino acids 1-698, 1-765, and 1-839 respectively; made in house
In words: Actin-activated ATPase activity (NADH-coupled assay), Dictyostelium myosin-5b. In kind it is biochemical. As to the method:
(§1) Based on the structure of the myosin-2 motor domain with bound PBP, we performed molecular modeling studies to elucidate the specificity of PBP-binding to myosins from different classes. […] To test the predictions from the modeling studies, we determined actin-activated ATPase activities in the presence of 0 to 150 μM PBP with rabbit skeletal myosin-2 heavy meromyosin (HMM), myosin-5a isolated from chicken brain, and recombinant Dictyostelium myosin class-1, 2 and 5 motor-domain constructs (FIG. 9a). […] The concentrations of PBP required for half-maximal inhibition of the different myosin motors was calculated from fitting the data to hyperbolae. […] To determine the extend to which PBP impairs the coupling between the actin- and nucleotide-binding sites of myosin, we measured the ATP turn-over rates of Dictyostelium myosin-2 and myosin-5b motor domain constructs over the range from 0 to 50 μM F-actin in the absence and presence of 25 μM PBP.
(§2) Values for the rate of maximum ATP turnover (kcat), the concentration of F-actin at which half-maximal activation is achieved (Kapp), and the apparent second order rate constant for actin binding (kcat/Kapp) were estimated from a fit of the data to a hyperbolic function. kcat/Kapp is a direct measure of the coupling efficiency between actin and nucleotide binding and can be determined from the initial slope at F-actin concentrations much smaller than Kapp. […] ATP turn-over rates of Dictyostelium myosin-2 (◯) and Dictyostelium myosin-5b (▪) at increasing F-actin concentrations in the absence (filled symbols) and presence (open symbols) of 25 μM pentabromopseudilin (FIG. 9b):
(§3) Protein preparation. Rabbit fast skeletal muscle heavy meromyosin (HMM) was prepared as described by Kron and Spudich^9. Motor domain constructs of myosin-1E, myosin-2, and myosin-5b from Dictyostelium discoideum comprising amino acids 1-698, 1-765, and 1-839 respectively, were prepared as described previouslyl^10-12. Myosin-5a heavy meromyosin from chicken brain was provided by Dr. T. Scholz (Hannover Medical School, Germany) and F-actin was prepared as described by Lehrer and Kerwar^13.
(§4) Steady-state kinetics. Basal and actin-activated Mg^2+-ATPase activities were measured with the NADH-coupled assay^19 in a buffer containing 25 mM HEPES, 25 mM KCl, and 4 mM MgCl2, 0.5 mM DTT at pH 7.0 in the presence of 1 mM ATP at 25° C. PBP was added to the reaction mixture in the absence of nucleotide and incubated for 20 minutes before the reaction was started by the addition of ATP. NADH oxidation was followed using the change in absorption at 340 nm in a Beckman DU-800 spectrophotometer.

A further assay deals with T2, DdMyosin-5b (Dictyostelium discoideum, UniProt P54697).
T2 construct: comprising amino acids 1-698, 1-765, and 1-839 respectively; made in house
In words: mantATP binding to DdMyosin-5b (stopped-flow). As to the method: Effect of Pentabromopseudilin on ATP binding kinetics to DdMyosin-5b and acto-DdMyosin-5b. (FIG. 10a) Fluorescence transients obtained upon mixing 1 μM DdMyosin-5b with 10 μM mantATP in the absence and presence of 5 μM, 25 μM, 50 μM and 100 μM PBP. Mant-fluorescence was excited at 365 nm and detected after passing through a KV 389 nm cut-off filter. The fluorescent signal of mantATP binding to DdMyosin-5b in the absence of PBP follows a single exponential function (upper curve). The presence of increasing concentrations of PBP lead to reduced amplitudes of the fluorescent signals that are best fit by double exponentials. (FIG. 10b) Plot of the relative amplitudes of mantATP binding to Dd Myosin-5b at different PBP concentrations. […] (FIG. 10c) Fluorescence transients of the ATP induced dissociation of pyrene-acto-DdMyosin-5b in the absence (black curve) and presence (grey curve) of 50 μM PBP. (FIG. 10d) Quench-flow experiments of the ATP hydrolysis reaction upon mixing 5 μM M761 with 25 μM ATP in the absence (solid squares) and presence (open circles) of 50 μM PBP. […]
The binding and hydrolysis of ATP and mantATP, respectively by myosin head fragments were analyzed in terms of the seven-step model described by Bagshaw and coworkers (4). Transients in the presence of actin were analyzed according to the mechanisms described in references 5 and 6.

The next assay addresses T3, Dictyostelium myosin-2 (Dictyostelium discoideum, UniProt P08799, C312Y/S249N).
T3 construct: comprising amino acids 1-698, 1-765, and 1-839 respectively; made in house
In words: Actin-activated ATPase activity (NADH-coupled assay), Dictyostelium myosin-2. Type of assay: biochemical. As for the experimental part:
as §1, §2, §3, §4

T1 sequence (P54697 1-839): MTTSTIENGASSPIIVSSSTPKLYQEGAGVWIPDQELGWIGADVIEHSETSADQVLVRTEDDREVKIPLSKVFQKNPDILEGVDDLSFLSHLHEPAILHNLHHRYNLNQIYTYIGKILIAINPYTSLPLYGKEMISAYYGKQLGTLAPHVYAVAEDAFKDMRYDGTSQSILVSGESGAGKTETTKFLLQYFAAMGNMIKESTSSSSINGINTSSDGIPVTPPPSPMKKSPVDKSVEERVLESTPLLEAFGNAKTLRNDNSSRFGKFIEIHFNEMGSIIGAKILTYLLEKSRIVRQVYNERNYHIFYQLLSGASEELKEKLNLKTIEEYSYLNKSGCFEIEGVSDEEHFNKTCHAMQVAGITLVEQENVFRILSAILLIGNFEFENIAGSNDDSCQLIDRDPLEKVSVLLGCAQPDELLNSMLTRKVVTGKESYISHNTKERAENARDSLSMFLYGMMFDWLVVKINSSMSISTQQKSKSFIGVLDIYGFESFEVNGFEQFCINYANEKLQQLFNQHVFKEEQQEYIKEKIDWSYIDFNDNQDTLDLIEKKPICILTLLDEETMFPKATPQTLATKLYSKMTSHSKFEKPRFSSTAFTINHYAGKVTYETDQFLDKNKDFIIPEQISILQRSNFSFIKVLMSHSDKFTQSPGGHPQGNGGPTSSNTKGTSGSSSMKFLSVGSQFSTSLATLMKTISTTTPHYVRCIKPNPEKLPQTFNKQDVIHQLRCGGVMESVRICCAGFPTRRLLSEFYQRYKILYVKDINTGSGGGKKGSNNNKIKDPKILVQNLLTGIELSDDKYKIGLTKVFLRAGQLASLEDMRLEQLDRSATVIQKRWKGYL
T3 sequence (P08799 1-765 S249N/C312Y): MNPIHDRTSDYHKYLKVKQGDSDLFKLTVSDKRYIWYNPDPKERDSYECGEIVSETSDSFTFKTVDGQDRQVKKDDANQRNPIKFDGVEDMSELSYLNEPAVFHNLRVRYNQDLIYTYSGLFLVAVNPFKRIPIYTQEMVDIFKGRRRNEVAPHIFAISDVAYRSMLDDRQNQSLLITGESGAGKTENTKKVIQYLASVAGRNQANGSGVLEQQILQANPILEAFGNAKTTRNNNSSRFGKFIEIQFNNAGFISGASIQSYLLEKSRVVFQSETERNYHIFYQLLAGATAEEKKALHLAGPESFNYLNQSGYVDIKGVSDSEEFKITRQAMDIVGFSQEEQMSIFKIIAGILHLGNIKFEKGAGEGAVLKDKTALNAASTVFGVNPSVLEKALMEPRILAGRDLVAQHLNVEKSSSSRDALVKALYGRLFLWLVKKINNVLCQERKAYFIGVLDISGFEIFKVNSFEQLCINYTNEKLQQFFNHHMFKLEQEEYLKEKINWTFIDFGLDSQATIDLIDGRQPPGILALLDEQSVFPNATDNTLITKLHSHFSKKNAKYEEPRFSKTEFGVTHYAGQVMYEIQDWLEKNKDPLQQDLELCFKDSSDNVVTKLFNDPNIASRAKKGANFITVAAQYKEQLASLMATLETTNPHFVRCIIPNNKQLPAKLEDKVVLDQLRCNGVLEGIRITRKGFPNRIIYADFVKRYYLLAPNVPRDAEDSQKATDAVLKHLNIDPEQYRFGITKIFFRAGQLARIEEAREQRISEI
T2 sequence (P54697 1-839): as the sequence (P54697 1-839) above

As usually defined, the Ki is a measure of affinity in units of concentration, obtained from inhibition or displacement. High values mean weaker binding, low ones tighter binding. A word on the Kd: it is the concentration at which binding is half-saturated. Higher therefore signals lower affinity. Take `Oc1c(Br)cc(Br)cc1-c1[nH]c(Br)c(Br)c1Br` [KIN-43]: the “fold weaker coupling (kcat/Kapp)” value at Dictyostelium myosin-5b (25 μM PBP) was 26 fold. For the same compound, the “kcat/Kapp (apparent second order rate constant for actin binding)” value on Dictyostelium myosin-5b (25 μM PBP, 0 to 50 μM F-actin, 0.32 without) was 12000 M⁻¹ s⁻¹; at Dictyostelium myosin-2 (25 μM PBP, 0 to 50 μM F-actin, 0.037 without), 10000 M⁻¹ s⁻¹. Moreover, the “ATPase activity at 30 μM F-actin in the presence of inhibitor” value on Dictyostelium myosin-5b (>100 μM PBP, 5.5 s^−1 without) was 0.05 s⁻¹; at Dictyostelium myosin-2 (>100 μM PBP, 0.7 s^−1 without) it was 0.02 s⁻¹. Moreover, the inhibition constant Ki at Dictyostelium myosin-5b (Ki, half-maximal inhibition of actin-activated ATPase activity, 0 to 150 μM PBP, hyperbolic fit) was 19.3 µM and 19.1 µM; at Dictyostelium myosin-2, 24 µM. The “fold decrease in kcat” value on Dictyostelium myosin-5b (class-5 myosins) is given as “approximately 8 fold”. For the same compound, the “fold increase in Kapp” value at Dictyostelium myosin-5b (class-5 myosins) is on record as “more than 25 fold”. Also, the dissociation constant (Kd) on DdMyosin-5b worked out at 21 ± 2 µM. On Dictyostelium myosin-2 (25 μM PBP), the “fold reduction in coupling (kcat/Kapp)” value came out at 3.7 fold.
